US7662789B2, “Peptide substance restoring myocardium function” (“Access Bioscience” CJSC, priority 2004, dated 2010)
Marks after values point to notes of the source that are not given here. Where a SMILES comes first, the peptide text is derived from it.

Key:
[1] = test system: adrenalin dystrophy in rat myocardium; assay: Adrenalin dystrophy in rat myocardium; format: in vivo, rats; details: for Diene conjugates content / Malon dialdegide content: 24 hours
Procedure: The experiment was conducted on 30 white mongrel rats with body weight of 180-200 g. The animals were randomly subdivided into three groups, each consisting of 10 animals. Adrenalin dystrophy was induced by administering the fresh adrenalin solution (“Serva”, USA) intraperitoneally in the dose of 2 mg/kg. The control animals received 0.9% NaCl solution. Then the experimental animals were in 1 and 5 hours treated with Ala-Glu-Asp-Arg (SEQ ID NO:1) tetrapeptide in the dose of 0.05 μg per animal in sterile 0.9% NaCl solution. In 4 hours since the beginning of the experiment cardiac muscle bioptates weighing approximately 10 mg were taken for the identification of cardiac dehydrogenases activity and glycogen content in the myocardium. In 24 hours the animals were killed by momentary decapitation. Left ventricle fragments were frozen in […]. In cryostatic slices the activity of succinatedehydrogenase (SDH) was histochemically identified, as well as of NADN-dehydrogenase (NADN-DH), lactatedehydrogenase and glycogen content.

[2] = test system: isolated rat heart; assay: Contractive ability of isolated rat heart after ischemia; details: 0.005 μg/ml; 12 rat hearts; severe stimulation 5 Hz
[3] = test system: chlorine-calcium arrhythmia in rats; assay: Chlorine-calcium (CaCl2) arrhythmia in rats; format: in vivo; details: for Death after the first arrhythmogen administration, abs.: 10 animals
Procedure: The experiment was conducted on 60 white mongrel rats with body weight of 180-200 g. The animals were randomly subdivided into 6 groups, each consisting of 10 animals. The rats were narcotized with urethane and received 220 mg/kg of 10% CaCl2 solution. Ala-Glu-Asp-Arg tetrapeptide was administered to the animals intraperitoneally, once, in the doses of 0.05-1.0 μg/kg in sterile 0.9% NaCl solution.

[4] = test system: isolated rat heart; assay: Contractive ability of isolated rat heart after ischemia; details: 10 min re-perfusion
Procedure: Another experiment was devoted to the study of the tetrapeptide's effect on the restoration of isolated rat heart's ability to contract after a period of ischemia. The study was conducted on 3 groups, 8 animals in each, in case of the additionally strained cardiac muscle working mode, under conditions of induced contraction rhythm and perfusion solution temperature increase up to 37° C.
The other series of experiments conducted on 12 rat hearts was aimed at the study of the tetrapeptide's protective effect in case of its addition into the perfusate in the concentration of […] before the induction of ischemia. Then “severe” stimulation was conducted (5 Hz frequency) in the heart and contractive activity was estimated. […] The administration of the tetrapeptide in a very small dose of 0.005 μg/ml preserved the heart, which was on the verge of stopping, from fibrillation and contractive activity decrease, restoring the value of the latter index.

[5] = test system: white mongrel male mice; assay: Acute toxicity, single intramuscular administration in mice; format: in vivo; details: single i.m. 1-5 mg/kg; dose 5000 times exceeding the therapeutic one
Procedure: The experiment aimed at the study of acute toxicity was conducted on 66 white mongrel male mice with body weight of 20-23 g. The animals were randomly subdivided into 6 equal groups. The substance was administered once, intramuscularly, in 0.25 ml volume, in the doses of 1 mg/kg, 2 mg/kg, 3 mg/kg, 4 mg/kg and 5 mg/kg in sterile 0.9% NaCl solution. The control animals received 0.9% NaCl solution.

[6] = test system: rat myocardium, TMTD poisoning; assay: Toxicochemical myocardiopathy by tetramethyl thiuram disulfide (TMTD) poisoning in rats; format: in vivo
Procedure: The experiment was conducted on 40 white mongrel rats with body weight of 220-230 g. The animals were randomly subdivided into four groups. The intoxication of animals with tetramethyl thiuram disulfide (TMTD) industrial poison was conducted in the form of 20-day course of 5% oil TMTD solution administration in the dose of 25 mg/kg intragastrically. The tetrapeptide was administered during the last 10 days of the experiment intramuscularly in the dose of 0.05 μg per animals in sterile 0.9% NaCl solution. Upon expiry of the indicated terms both the control and experimental animals were killed by momentary decapitation. Myocardium fragments were fixed by 12% formalin solution. Paraphin slices were stained by hematoxylin-eosine, as well as by Van Gison, Brachet, with sudan III, IV. Intact animals served as the control.

[7] = adrenalin + 0.05 μg per animal, liver
[8] = adrenalin + tetrapeptide, 4 hours
[9] = 0.005 μg/ml, listed as tetrapeptide
[10] = TMTD 25 mg/kg 20 days + tetrapeptide 0.05 μg per animal i.m. last 10 days
[11] = intact animals, 0.05 μg per animal i.m. 10 days

C[C@H](N)C(=O)N[C@@H](CCC(=O)O)C(=O)N[C@@H](CC(=O)O)C(=O)N[C@@H](CCCNC(=N)N)C(=O)O [Tetrapeptide, L-alanyl-L-glutamyl-L-aspartyl-L-arginine] (H-AEDR-OH) was tested, and the Quantity of diene conjugates in the myocardium ([1]; 24 hours after induction of dystrophy, control 176±24) was 110 ± 17 nmol/g, the Diene conjugates content ([1]; adrenalin 2 mg/kg i.p. + 0.05 μg per animal at 1 and 5 h, heart) was 110 ± 17 nmole/g of tissue and the Malon dialdegide content ([1]; adrenalin + 0.05 μg per animal, heart) was 173 ± 25 nmole/g of tissue. For the same compound, the Diene conjugates content [1, 7] was 92 ± 11 nmole/g of tissue, the Malon dialdegide content [1, 7] was 270 ± 56 nmole/g of tissue and the “Enzyme activity in the myocardium tissue: LDH” value [1, 8] was 0.154 ± 0.011 rel. optical density unit. The “Enzyme activity in the myocardium tissue: NADN-DH” value [1, 8] was 0.344 + 0.019 rel. optical density unit, the “Enzyme activity in the myocardium tissue: SDH” value [1, 8] was 0.284 ± 0.013 rel. optical density unit and the Glycogen content ([1]; adrenalin + tetrapeptide, myocardium, 4 hours) was 0.168±0.021 rel. optical density unit. For the same compound, the “Protective effect when added into the perfusate before induced ischemia” value [2] was “restrained the growth of contracture during the period of ischemia”, the “Death after the first arrhythmogen administration, %” value (“Death … %” for short) ([3]; 0.05 μg/kg i.p. once) was 50% and the “Frequency of sinus rhythm restoration after the first CaCl2 administration” value (“Frequency of sinus rhythm restoration” below) ([3]; 0.05 μg/kg i.p. once) was 27.0%. For the same compound, the “Frequency of ventricle fibrillation development in the course of the experiment” value (shortened to “Frequency … of the experiment”) ([3]; 0.05 μg/kg i.p. once) was 60.3%, the “Maximum tolerable arrhythmogen dose” value ([3]; 0.05 μg/kg i.p. once) was 220 mg/kg and the “Death after the first arrhythmogen administration, abs.” value (“Death … abs.” for short) ([3]; 0.05 μg/kg i.p. once) was 5. The “Death … %” value ([3]; 0.1 μg/kg i.p. once) was 50%, the “Frequency of sinus rhythm restoration” value ([3]; 0.1 μg/kg i.p. once) was 29.6% and the “Frequency … of the experiment” value ([3]; 0.1 μg/kg i.p. once) was 45.8%. For the same compound, the “Maximum tolerable arrhythmogen dose” value ([3]; 0.1 μg/kg i.p. once) was 220 mg/kg, the “Death … abs.” value ([3]; 0.1 μg/kg i.p. once) was 5 and the “Increase of frequency of heart contractions (FHC)” value ([3]; 0.2 μg/kg and 0.5 μg/kg, bradicardia rats) was 12.3-48.6%. For the same compound, the “Death … %” value ([3]; 0.2 μg/kg i.p. once) was 30%, the “Frequency of sinus rhythm restoration” value ([3]; 0.2 μg/kg i.p. once) was 49.0* % and the “Frequency … of the experiment” value ([3]; 0.2 μg/kg i.p. once) was 35.2* %. For the same compound, the “Maximum tolerable arrhythmogen dose” value ([3]; 0.2 μg/kg i.p. once) was 440 mg/kg, the “Death … abs.” value ([3]; 0.2 μg/kg i.p. once) was 3 and the “Death … %” value ([3]; 0.5 μg/kg i.p. once) was 40%. For the same compound, the “Frequency of sinus rhythm restoration” value ([3]; 0.5 μg/kg i.p. once) was 39.5* %, the “Frequency … of the experiment” value ([3]; 0.5 μg/kg i.p. once) was 39.1* % and the “Maximum tolerable arrhythmogen dose” value ([3]; 0.5 μg/kg i.p. once) was 440 mg/kg. The “Death … abs.” value ([3]; 0.5 μg/kg i.p. once) was 4, the “Death … %” value ([3]; 1.0 μg/kg i.p. once) was 60% and the “Frequency of sinus rhythm restoration” value ([3]; 1.0 μg/kg i.p. once) was 16.3%. The “Frequency … of the experiment” value ([3]; 1.0 μg/kg i.p. once) was 43.6%, the “Maximum tolerable arrhythmogen dose” value ([3]; 1.0 μg/kg i.p. once) was 220 mg/kg and the “Death … abs.” value ([3]; 1.0 μg/kg i.p. once) was 6. For the same compound, the Most efficient dose ([3]; doses 0.05-1.0 μg/kg i.p. tested) was 0.0002 mg/kg, the “Amplitude of contractions, % of init.” value ([4]; 0.005 μg/ml) was 75 ± 12 % of init and the Coronary duct ([4]; 0.005 μg/ml) was 10.8 ± 1.6 mL/min. For the same compound, the Extent of contracture ([4]; 0.005 μg/ml) was 1.3 ± 0.4 mm, the “Max. speed of contraction, % of init.” value ([4]; 0.005 μg/ml) was 56 ± 10 % of init and the “Max. speed of relaxation, % of init.” value ([4]; 0.005 μg/ml) was 69 ± 8 % of init. For the same compound, the “Amplitude of contractions, % of init.” value [4, 9] was 75±12 % of init, the Coronary duct [4, 9] was 10.8 ± 1.6 mL/min and the “Amplitude of contractions, % of init.” value ([4]; 0.05 μg/ml) was 36 ± 10 % of init. For the same compound, the Coronary duct ([4]; 0.05 μg/ml) was 9.6 ± 0.7 mL/min, the Extent of contracture ([4]; 0.05 μg/ml) was 2.5 ± 0.3 mm and the “Max. speed of contraction, % of init.” value ([4]; 0.05 μg/ml) was 28 ± 7 % of init. The “Max. speed of relaxation, % of init.” value ([4]; 0.05 μg/ml) was 28 ± 6 % of init, the “Acute toxicity, toxic reactions” value [5] was “does not cause toxic reactions” and the Cardiomyocyte nuclei volume [6, 10] was 365.4 ± 13.8** μm^3. For the same compound, the Nuclear-cytoplasmatic ratio [6, 10] was 0.28±0.03, the Parenchyma volume [6, 10] was 0.83 ± 0.02** cm^3/cm^3 and the Stroma volume [6, 10] was 0.180±0.02 cm^3/cm^3. For the same compound, the “Vessels volume, Vcap/Vcmc” value [6, 10] was 0.07 ± 0.02 Vcap/Vcmc, the “Increase of the filling of the myocardium” value ([6]; intact animals, versus control) was 11% and the “Increase of the volume of cardiomyocytes' nuclei” value ([6]; intact animals, versus control) was 14%. The Cardiomyocyte nuclei volume [6, 11] was 386.2 ± 2.1* μm^3, the Nuclear-cytoplasmatic ratio [6, 11] was 0.40 ± 0.04 and the Parenchyma volume [6, 11] was 0.82 ± 0.04 cm^3/cm^3. For the same compound, the Stroma volume [6, 11] was 0.159 ± 0.05 cm^3/cm^3 and the “Vessels volume, Vcap/Vcmc” value [6, 11] was 0.08 ± 0.006 Vcap/Vcmc.
